Usually stoichiometry N stands for a count of units in the complex or per binding partner. A word on the Km: it is the concentration of substrate that gives half-maximal velocity. Usually Vmax stands for the rate approached at saturating substrate. Usually kcat stands for the number of substrate molecules converted per active site and unit of time at saturation. For orientation: kcat/Km means the turnover number divided by the Michaelis constant.

The values below come from PMC8121951, “Structure-based engineering of substrate specificity for pinoresinol-lariciresinol reductases” (Nature Communications, 2021).

The target in one data set is T1, AtPrR1 (Arabidopsis thaliana, UniProt Q9FVQ6).
T1 construct: gene PRR1; full-length, pET-duet-1, E. coli Rosetta (DE3), Ni-NTA and Superdex-200; homodimer
T1 sequence (Q9FVQ6 1-317): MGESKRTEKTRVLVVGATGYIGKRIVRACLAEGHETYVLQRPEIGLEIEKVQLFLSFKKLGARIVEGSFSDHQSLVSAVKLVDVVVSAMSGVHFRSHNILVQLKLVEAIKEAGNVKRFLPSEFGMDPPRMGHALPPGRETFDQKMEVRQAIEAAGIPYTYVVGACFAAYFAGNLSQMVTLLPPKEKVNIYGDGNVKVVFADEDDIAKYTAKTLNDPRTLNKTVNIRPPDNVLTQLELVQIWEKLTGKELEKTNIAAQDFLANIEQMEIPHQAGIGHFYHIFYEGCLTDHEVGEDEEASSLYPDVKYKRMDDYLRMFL
Description: X-ray crystal structure, co-crystal. The conditions noted are these: wild type. It is filed as binding.

Data set [1] addresses T2, AtPrR2 (Arabidopsis thaliana, UniProt Q9SVP6).
T2 construct: gene PRR2; full-length, pET-duet-1, E. coli Rosetta (DE3), Ni-NTA and Superdex-200; homodimer
T2 sequence (Q9SVP6 1-317): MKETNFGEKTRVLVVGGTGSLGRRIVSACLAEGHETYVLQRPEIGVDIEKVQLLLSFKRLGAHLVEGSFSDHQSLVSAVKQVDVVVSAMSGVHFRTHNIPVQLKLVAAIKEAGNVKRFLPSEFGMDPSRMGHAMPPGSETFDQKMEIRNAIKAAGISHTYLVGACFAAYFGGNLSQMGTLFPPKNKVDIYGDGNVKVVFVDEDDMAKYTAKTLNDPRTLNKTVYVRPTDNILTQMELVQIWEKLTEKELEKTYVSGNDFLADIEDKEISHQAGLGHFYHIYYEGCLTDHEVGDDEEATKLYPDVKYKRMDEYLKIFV
The data set can be described thus: X-ray crystal structure, co-crystal. The settings on record: wild type, 1.6 Å. Format: binding.

The next data set concerns the target T3, IiPLR1 (Isatis tinctoria, UniProt I6LRS1).
T3 construct: full-length, pET-duet-1, E. coli Rosetta (DE3), Ni-NTA and Superdex-200; homodimer
T3 sequence (I6LRS1 1-317): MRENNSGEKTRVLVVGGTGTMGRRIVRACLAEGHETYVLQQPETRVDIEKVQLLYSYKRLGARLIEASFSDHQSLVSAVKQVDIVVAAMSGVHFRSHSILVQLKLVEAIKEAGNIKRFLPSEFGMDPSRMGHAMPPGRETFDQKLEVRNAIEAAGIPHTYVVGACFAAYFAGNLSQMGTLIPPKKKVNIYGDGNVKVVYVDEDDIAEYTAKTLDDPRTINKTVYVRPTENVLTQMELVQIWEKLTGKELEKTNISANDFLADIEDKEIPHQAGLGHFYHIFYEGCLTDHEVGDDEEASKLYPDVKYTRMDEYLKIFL
Description: X-ray crystal structure, co-crystal. It is filed as binding. The conditions noted are these: wild type.

The target of data set [2] is Isatis indigotica pinoresinol-lariciresinol reductase 1 (Isatis indigotica). The data set can be described thus: crystal structure; sitting-drop vapour diffusion at 20 or 4 °C, protein 5-10 mg/mL; apo, with NADP+ (1:5) or with NADP+ and substrate/product (1:5:10); homodimer seen in the crystal.
Data set [3] deals with T4, AtPrR2 (Arabidopsis thaliana, UniProt Q9SVP6, N98S).
T4 construct: gene PRR2; full-length, pET-duet-1, E. coli Rosetta (DE3), Ni-NTA and Superdex-200; homodimer
T4 sequence (Q9SVP6 1-317 N98S): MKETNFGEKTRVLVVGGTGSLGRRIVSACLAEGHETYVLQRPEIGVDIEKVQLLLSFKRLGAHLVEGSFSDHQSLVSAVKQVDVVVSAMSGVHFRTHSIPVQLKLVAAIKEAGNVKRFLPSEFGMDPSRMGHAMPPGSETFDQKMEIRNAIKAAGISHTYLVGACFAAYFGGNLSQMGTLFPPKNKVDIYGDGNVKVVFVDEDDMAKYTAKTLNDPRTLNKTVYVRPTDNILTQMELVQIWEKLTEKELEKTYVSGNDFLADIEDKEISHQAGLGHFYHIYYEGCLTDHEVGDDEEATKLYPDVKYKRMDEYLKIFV
The data set can be described thus: LC-MS product conversion. It is filed as biochemical. The conditions noted are these: NADPH 150 μM, Tris-HCl pH 7.0, 30 °C, 30 min.

Substrate in data set [4]: COc1cc(C2OCC3C(c4ccc(O)c(OC)c4)OCC23)ccc1O
Description: LC-MS substrate consumption, Lineweaver-Burk. The conditions noted are these: NADPH 150 μM, 50 mM Tris-HCl pH 7.0, 10% glycerol, 30 °C, racemic substrate. Format: biochemical, Isatis tinctoria. The text has this: (§1) LC-MS substrate consumption, Lineweaver-Burk on IiPLR1

Substrate in data set [5]: COc1cc(CC2COC(c3ccc(O)c(OC)c3)C2CO)ccc1O
The data set can be described thus: LC-MS substrate consumption, Lineweaver-Burk. It is filed as biochemical, Isatis tinctoria. The conditions noted are these: NADPH 150 μM, 50 mM Tris-HCl pH 7.0, 10% glycerol, 30 °C, racemic substrate.
Source text: as §1

Data set [6] concerns the molecule itself. Description: crystal structure; sitting-drop vapour diffusion at 20 or 4 °C, protein 5-10 mg/mL; apo, with NADP+ (1:5) or with NADP+ and substrate/product (1:5:10); homodimer seen in the crystal.

On to `COc1cc([C@H]2OC[C@H]3[C@@H]2CO[C@@H]3c2ccc(O)c(OC)c2)ccc1O` [+PIN, (+)-pinoresinol], for which the “X-ray crystal structure, co-crystal” value is 7CSB (AtPrR1 with NADP^+ and (+)pinoresinol) on AtPrR1 (with NADP+, 2.0 Å); 7CSH (AtPrR2 with NADP^+ and (+)pinoresinol) at AtPrR2 [1] (with NADP+); 7CS4 (IiPLR1 with NADP^+ and (+)pinoresinol) on IiPLR1 (with NADP+, 2.3 Å).
Consider “Isatis indigotica pinoresinol-lariciresinol reductase 1 (enzyme)”, for which, in data set [2], the stoichiometry N turned out to be 2.
Regarding `COc1cc(C[C@H]2CO[C@H](c3ccc(O)c(OC)c3)[C@H]2CO)ccc1O` [lariciresinol], the LC-MS product conversion result at AtPrR2 [3] is on record as “AtPrR2 mutant N98S could utilize lariciresinol to produce secoisolariciresinol”.
With `COc1cc([C@@H]2OC[C@@H]3[C@H]2CO[C@H]3c2ccc(O)c(OC)c2)ccc1O` [-PIN, (−)-pinoresinol], the “X-ray crystal structure, co-crystal” value at AtPrR1 (with NADP+, 2.5 Å) was 7CSC (AtPrR1 with NADP^+ and (−)pinoresinol); on IiPLR1 (with NADP+, 2.1 Å) it was 7CS5 (IiPLR1 with NADP^+ and (−)pinoresinol).
As to `COc1cc(C[C@@H](CO)[C@H](CO)Cc2ccc(O)c(OC)c2)ccc1O` [-SEC, (−)-secoisolariciresinol], the “X-ray crystal structure, co-crystal” value on AtPrR1 (with NADP+, 2.0 Å) was 7CSF (AtPrR1 with NADP^+ and (−)secoisolariciresinol); on IiPLR1 (with NADP+, 2.6 Å), 7CS8 (IiPLR1 with NADP^+ and (−)secoisolariciresinol).
Regarding `COc1cc(C[C@@H]2CO[C@@H](c3ccc(O)c(OC)c3)[C@@H]2CO)ccc1O` [-LAR, (−)-lariciresinol], the “X-ray crystal structure, co-crystal” value at AtPrR1 (with NADP+, 2.5 Å) was 7CSE (AtPrR1 with NADP^+ and (−)lariciresinol); at IiPLR1 (with NADP+, 2.2 Å), 7CS6 (IiPLR1 with NADP^+ and (−)lariciresinol).
As for `COc1cc(C[C@H](CO)[C@@H](CO)Cc2ccc(O)c(OC)c2)ccc1O` [+SEC, (+)-secoisolariciresinol], the “X-ray crystal structure, co-crystal” value on IiPLR1 (with NADP+, 2.3 Å) was 7CS7 (IiPLR1 with NADP^+ and (+)secoisolariciresinol).
As to `NC(=O)c1ccc[n+]([C@@H]2O[C@H](COP(=O)(O)OP(=O)(O)OC[C@H]3O[C@@H](n4cnc5c(N)ncnc54)[C@H](OP(=O)(O)O)[C@@H]3O)[C@@H](O)[C@H]2O)c1` [NAP, NADP^+], the “X-ray crystal structure, co-crystal” value is 7CSA (AtPrR1 with NADP^+) at AtPrR1 (2.0 Å); 7CSH (AtPrR2 with NADP^+ and (+)pinoresinol) at AtPrR2 [1] (with (+)-pinoresinol); 7CS3 (IiPLR1 with NADP^+) on IiPLR1 (2.4 Å).
Take `COc1cc(C[C@H]2CO[C@H](c3ccc(O)c(OC)c3)[C@H]2CO)ccc1O` [+LAR, (+)-lariciresinol]: the “X-ray crystal structure, co-crystal” value on AtPrR1 (with NADP+, 1.8 Å) is 7CSD (AtPrR1 with NADP^+ and (+)lariciresinol).

B1: IiPLR1 (Isatis tinctoria; V46A) (protein)
chain: MRENNSGEKTRVLVVGGTGTMGRRIVRACLAEGHETYVLQQPETRADIEKVQLLYSYKRLGARLIEASFSDHQSLVSAVKQVDIVVAAMSGVHFRSHSILVQLKLVEAIKEAGNIKRFLPSEFGMDPSRMGHAMPPGRETFDQKLEVRNAIEAAGIPHTYVVGACFAAYFAGNLSQMGTLIPPKKKVNIYGDGNVKVVYVDEDDIAEYTAKTLDDPRTINKTVYVRPTENVLTQMELVQIWEKLTGKELEKTNISANDFLADIEDKEIPHQAGLGHFYHIFYEGCLTDHEVGDDEEASKLYPDVKYTRMDEYLKIFL
notes: full-length, pET-duet-1, E. coli Rosetta (DE3), Ni-NTA and Superdex-200; homodimer
In the case of B1, in data set [4], the Km worked out at 29.4 ± 1.62 µM, the Vmax was 3.22 µM/min, the kcat was determined as 1.91 ± 0.402 s⁻¹ and the kcat/Km turned out to be 64700 ± 10800 M⁻¹ s⁻¹. Moreover, in data set [5], the Michaelis constant (Km) was 26.5 ± 0.60 µM, the Vmax is 0.023 µM/min, the kcat turned out to be 0.0135 ± 0.00075 s⁻¹ and the kcat/Km is 517 ± 33.3 M⁻¹ s⁻¹.

B2: Arabidopsis thaliana pinoresinol reductase 1 (enzyme, UniProt Q9FVQ6 1-317, looked up)
chain: MGESKRTEKTRVLVVGATGYIGKRIVRACLAEGHETYVLQRPEIGLEIEKVQLFLSFKKLGARIVEGSFSDHQSLVSAVKLVDVVVSAMSGVHFRSHNILVQLKLVEAIKEAGNVKRFLPSEFGMDPPRMGHALPPGRETFDQKMEVRQAIEAAGIPYTYVVGACFAAYFAGNLSQMVTLLPPKEKVNIYGDGNVKVVFADEDDIAKYTAKTLNDPRTLNKTVNIRPPDNVLTQLELVQIWEKLTGKELEKTNIAAQDFLANIEQMEIPHQAGIGHFYHIFYEGCLTDHEVGEDEEASSLYPDVKYKRMDDYLRMFL
notes: Head-to-tail homodimer in all crystal forms; crystallised apo, with NADP+, or with NADP+ and substrate/product; also called AtPrR1; PrR; source: E. coli Rosetta (DE3), purified (Ni-NTA, Superdex-200); not shown: His tag (inferred from the Ni-NTA purification)
As for B2, the “stoichiometry N” value in data set [6] stood at 2.

B3: Arabidopsis thaliana pinoresinol reductase 2 (enzyme, UniProt Q9SVP6 1-317, looked up)
chain: MKETNFGEKTRVLVVGGTGSLGRRIVSACLAEGHETYVLQRPEIGVDIEKVQLLLSFKRLGAHLVEGSFSDHQSLVSAVKQVDVVVSAMSGVHFRTHNIPVQLKLVAAIKEAGNVKRFLPSEFGMDPSRMGHAMPPGSETFDQKMEIRNAIKAAGISHTYLVGACFAAYFGGNLSQMGTLFPPKNKVDIYGDGNVKVVFVDEDDMAKYTAKTLNDPRTLNKTVYVRPTDNILTQMELVQIWEKLTEKELEKTYVSGNDFLADIEDKEISHQAGLGHFYHIYYEGCLTDHEVGDDEEATKLYPDVKYKRMDEYLKIFV
notes: Head-to-tail homodimer in both crystal forms (apo); with NADP+ and (+)-pinoresinol); also called AtPrR2; PrR; source: E. coli Rosetta (DE3), purified (Ni-NTA, Superdex-200); not shown: His tag (inferred from the Ni-NTA purification)
B3: the “stoichiometry N” value in data set [6] is 2.
